Assay results published in PubChem BioAssay (NCI).
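Assay format: 96-well plates, 48-hour exposure. Here, GI50 denotes the concentration required for 50% inhibition of growth. TGI: concentration producing complete growth inhibition.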

Key:
Assay in all cases: NCI tumour cell line growth inhibition, 48 h
[1] = system: 786-0 renal
[2] = system: A498 renal
[3] = system: A549 NSCLC
[4] = system: ACHN renal
[5] = system: BT-549 breast
[6] = system: CAKI-1 renal
[7] = system: CCRF-CEM leukemia
[8] = system: COLO 205 colon
[9] = system: DU-145 prostate
[10] = system: HCC-2998 colon
[11] = system: HCT-116 colon
[12] = system: HCT-15 colon
[13] = system: HL-60(TB) leukemia
[14] = system: HOP-62 NSCLC
[15] = system: HOP-92 NSCLC
[16] = system: HS 578T breast
[17] = system: HT29 colon
[18] = system: IGROV1 ovarian
[19] = system: K-562 leukemia
[20] = system: KM12 colon
[21] = system: LOX IMVI melanoma
[22] = system: M14 melanoma
[23] = system: MALME-3M melanoma
[24] = system: MCF7 breast
[25] = system: MDA-MB-231 breast
[26] = system: MDA-MB-435
[27] = system: MOLT-4 leukemia
[28] = system: NCI-H226 lung
[29] = system: NCI-H23 lung
[30] = system: NCI-H460 lung
[31] = system: NCI-H522 lung
[32] = system: NCI/ADR-RES ovarian
[33] = system: OVCAR-3 ovarian
[34] = system: OVCAR-4 ovarian
[35] = system: OVCAR-5 ovarian
[36] = system: OVCAR-8 ovarian
[37] = system: PC-3 prostate
[38] = system: RPMI-8226 leukemia
[39] = system: RXF 393 renal
[40] = system: SF-268 CNS
[41] = system: SF-295 CNS
[42] = system: SF-539 CNS
[43] = system: SK-MEL-2 melanoma
[44] = system: SK-MEL-28 melanoma
[45] = system: SK-MEL-5 melanoma
[46] = system: SK-OV-3 ovarian
[47] = system: SN12C renal
[48] = system: SNB-19 CNS
[49] = system: SNB-75 CNS
[50] = system: SR leukemia
[51] = system: SW-620 colon
[52] = system: T-47D breast
[53] = system: TK-10 renal
[54] = system: U251 CNS
[55] = system: UACC-257 melanoma
[56] = system: UACC-62 melanoma
[57] = system: UO-31 renal
[58] = system: EKVX NSCLC

## CCN(Cc1cc(F)cc(F)c1)c1ccc(CO)c(Cl)c1
[1]
  GI50: 12.5 µM
  TGI: 27.2 µM
[2]
  GI50: 0.0343 µM
  TGI: 0.167 µM
[3]
  GI50: 2.36 µM
  TGI: 21.5 µM
[4]
  GI50: 13.3 µM
  TGI: 27 µM
[5]
  GI50: 14.4 µM
  TGI: 29.1 µM
[6]
  GI50: 0.456 µM
  TGI: 2.64 µM
[7]
  GI50: 18.5 µM
  TGI: 66.5 µM
[8]
  GI50: 3 µM
  TGI: 10.5 µM
[9]
  GI50: 15.4 µM
  TGI: 34.2 µM
[10]
  GI50: 7.68 µM
  TGI: 23.6 µM
[11]
  GI50: 0.0723 µM
  TGI: 8.31 µM
[12]
  GI50: 12.4 µM
  TGI: 29.9 µM
[13]
  GI50: 7.25 µM
  TGI: 32.7 µM
[14]
  GI50: 2.67 µM
  TGI: 20.2 µM
[15]
  GI50: 0.195 µM
  TGI: 9.25 µM
[16]
  GI50: 16.4 µM
  TGI: 44.7 µM
[17]
  GI50: 3.74 µM
  TGI: 17.1 µM
[18]
  GI50: 0.0726 µM
  TGI: 0.38 µM
[19]
  GI50: 1.04 µM
  TGI: 23 µM
[20]
  GI50: 13 µM
  TGI: 26.6 µM
[21]
  GI50: 14.4 µM
  TGI: 28.2 µM
[22]
  GI50: 15.3 µM
  TGI: 32.4 µM
[23]
  GI50: 15 µM
  TGI: 30.4 µM
[24]
  GI50: 0.208 µM
  TGI: 12.8 µM
[25]
  GI50: 13 µM
  TGI: 26.7 µM
[26]
  GI50: 14.4 µM
  TGI: 30 µM
[27]
  GI50: 18.3 µM
  TGI: 51 µM
[28]
  GI50: 0.0801 µM
  TGI: 0.214 µM
[29]
  GI50: 12.3 µM
  TGI: 33.5 µM
[30]
  GI50: 0.205 µM
  TGI: 12.5 µM
[31]
  GI50: 13.5 µM
  TGI: 29.4 µM
[32]
  GI50: 14.8 µM
  TGI: 38.4 µM
[33]
  GI50: 0.342 µM
  TGI: 2.31 µM
[34]
  GI50: 0.168 µM
  TGI: 2.73 µM
[35]
  GI50: 0.0668 µM
  TGI: 0.287 µM
[36]
  GI50: 13.4 µM
  TGI: 34.7 µM
[37]
  GI50: 12.5 µM
  TGI: 27.1 µM
[38]
  GI50: 2.48 µM
  TGI: 26.1 µM
[39]
  GI50: 2.54 µM
  TGI: 17.5 µM
[40]
  GI50: 15.5 µM
  TGI: 31.3 µM
[41]
  GI50: 0.379 µM
  TGI: 14.3 µM
[42]
  GI50: 15.1 µM
  TGI: 29.5 µM
[43]
  GI50: 4.43 µM
  TGI: 20.2 µM
[44]
  GI50: 13.7 µM
  TGI: 26.8 µM
[45]
  GI50: 11.8 µM
  TGI: 24.2 µM
[46]
  GI50: 10.5 µM
  TGI: 25.7 µM
[47]
  GI50: 12.1 µM
  TGI: 25.2 µM
[48]
  GI50: 14.9 µM
  TGI: 41.2 µM
[49]
  GI50: 8.49 µM
  TGI: 27.3 µM
[50]
  GI50: 17.2 µM
  TGI: 43.6 µM
[51]
  GI50: 0.652 µM
  TGI: 18.6 µM
[52]
  GI50: 0.118 µM
  TGI: 0.782 µM
[53]
  GI50: 0.0425 µM
  TGI: 0.236 µM
[54]
  GI50: 0.992 µM
  TGI: 16.4 µM
[55]
  GI50: 0.0986 µM
  TGI: 0.429 µM
[56]
  GI50: 0.115 µM
  TGI: 0.909 µM
[57]
  GI50: 3.24 µM
  TGI: 21.4 µM

## NC(CCCCO)C(=O)O (configuration not stated)
[2]
  TGI: > 100 µM
[3]
  TGI: > 100 µM
[4]
  TGI: > 100 µM
[5]
  TGI: > 100 µM
[6]
  TGI: > 100 µM
[7]
  TGI: > 100 µM
[8]
  TGI: > 100 µM
[9]
  TGI: > 100 µM
[58]
  TGI: > 100 µM
[10]
  TGI: > 100 µM
[12]
  TGI: > 100 µM
[13]
  TGI: > 100 µM
[14]
  TGI: > 100 µM
[15]
  TGI: > 100 µM
[16]
  TGI: > 100 µM
[17]
  TGI: > 100 µM
[18]
  TGI: > 100 µM
[19]
  TGI: > 100 µM
[20]
  TGI: > 100 µM
[21]
  TGI: > 100 µM
[22]
  TGI: > 100 µM
[23]
  TGI: > 100 µM
[24]
  TGI: > 100 µM
[25]
  TGI: > 100 µM
[26]
  TGI: > 100 µM
[28]
  TGI: > 100 µM
[29]
  TGI: > 100 µM
[30]
  TGI: > 100 µM
[31]
  TGI: > 100 µM
[32]
  TGI: > 100 µM
[33]
  TGI: > 100 µM
[34]
  TGI: > 100 µM
[35]
  TGI: > 100 µM
[36]
  TGI: > 100 µM
[37]
  TGI: > 100 µM
[38]
  TGI: > 100 µM
[39]
  TGI: > 100 µM
[40]
  TGI: > 100 µM
[41]
  TGI: > 100 µM
[43]
  TGI: > 100 µM
[44]
  TGI: > 100 µM
[45]
  TGI: > 100 µM
[46]
  TGI: > 100 µM
[48]
  TGI: > 100 µM
[49]
  TGI: > 100 µM
[50]
  TGI: > 100 µM
[51]
  TGI: > 100 µM
[52]
  TGI: > 100 µM
[53]
  TGI: > 100 µM
[54]
  TGI: > 100 µM
[55]
  TGI: > 100 µM
[56]
  TGI: > 100 µM
[57]
  TGI: > 100 µM
